Experimental data from the NIST ThermoML archive (doi:10.1007/s10765-009-0584-4).
Values joined by “and” are separate entries in the source; they are usually repeats but may differ in a detail not shown here. Identical values can stand only once.

Conditions: 101.33 kPa, Liquid; for electrical conductivity: Parallel Plate Conductive Cell; for kinematic viscosity: Capillary tube (Ostwald / Ubbelohde) method

CCCCCC[n+]1ccn(C)c1.O=S(=O)([N-]S(=O)(=O)C(F)(F)F)C(F)(F)F
Conditions	electrical conductivity	kinematic viscosity [m2/s]
278.15 K	0.0783 S/m	–
283.15 K	0.104 S/m	–
288.15 K	0.136 S/m	–
293.15 K	0.173 S/m	–
298.15 K	0.217 S/m and 0.218 S/m	5.06e-05
303.15 K	0.268 S/m	4.04e-05
308.15 K	0.326 S/m	–
313.15 K	0.391 S/m	–
313.16 K	–	2.7e-05
323.15 K	0.543 S/m	1.9e-05
333.15 K	0.726 S/m	1.39e-05
343.15 K	–	1.06e-05
